Data from ChEMBL document CHEMBL1201862, “PubChem BioAssay data set” (2004).
Calls of active or inactive are those of the source.

Key:
[1] = target: T1, Sentrin-specific protease 1 (Homo sapiens, UniProt Q9P0U3); assay: Dose response confirmation of small molecule inhibitors of the catalytic domain of the SUMO protease, SENP1 in a FRET assay.; assay type: functional; conditions: read-out: IC50_Mean
[2] = target: T1, Sentrin-specific protease 1; assay: SENP1 catalytic domain blockers, concentration series – biochemical, kinetic FRET, dose response (AID 651697); assay type: functional; conditions: read-out: IC50_Mean
Protein Wnt-3a = Protein Wnt-3a (Mus musculus, UniProt P27467); assay: antagonism of Wnt3a pathway luciferase reporter – Wnt-LIGHT cells, luminescence, selectivity assay for Gli-SUFU antagonist project, dose response (AID 651570); assay type: functional; conditions: read-out: IC50_Mean;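 further: Wnt-LIGHT reporter cells stimulated with conditioned medium from Wnt3a-producing cells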
Sequence of Protein Wnt-3a (P27467 whole entry): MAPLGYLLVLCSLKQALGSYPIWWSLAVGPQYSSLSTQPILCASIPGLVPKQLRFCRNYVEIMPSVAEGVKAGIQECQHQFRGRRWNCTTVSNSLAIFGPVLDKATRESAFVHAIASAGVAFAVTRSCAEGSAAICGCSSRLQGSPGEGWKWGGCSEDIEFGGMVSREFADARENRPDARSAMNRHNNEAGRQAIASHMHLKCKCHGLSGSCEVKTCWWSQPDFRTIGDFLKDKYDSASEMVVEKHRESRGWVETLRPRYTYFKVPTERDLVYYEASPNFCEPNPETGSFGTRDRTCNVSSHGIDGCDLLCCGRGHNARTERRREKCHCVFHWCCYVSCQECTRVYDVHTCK

Melanocortin receptor 4 = Melanocortin receptor 4 (Homo sapiens, UniProt P32245); assay type: functional, cell-based;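 further: Cell-based assay with luminescence read-out, confirmatory dose-response testing for agonist activity of biased ligands at MC4R; human U2OS cells with tagged receptor and beta-arrestin; potency of agonists that increase receptor coupling to beta-arrestin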
Sequence of Melanocortin receptor 4 (P32245 whole entry): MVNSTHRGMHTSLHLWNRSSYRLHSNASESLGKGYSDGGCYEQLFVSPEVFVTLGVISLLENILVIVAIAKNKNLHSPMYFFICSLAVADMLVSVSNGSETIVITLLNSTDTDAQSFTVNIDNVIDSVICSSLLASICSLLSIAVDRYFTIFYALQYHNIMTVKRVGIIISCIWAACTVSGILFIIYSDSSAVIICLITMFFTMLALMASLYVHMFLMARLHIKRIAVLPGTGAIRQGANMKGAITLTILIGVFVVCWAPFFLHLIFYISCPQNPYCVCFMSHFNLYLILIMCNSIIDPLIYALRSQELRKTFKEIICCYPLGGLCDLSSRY

[3] = target: Opioid receptors; mu & delta (Homo sapiens, UniProt P41143+P35372); assay: OPRM1-OPRD1 heterodimer agonist potency – cell-based, luminescence, counter-screen for MC4R biased agonist project, dose response (AID 602264); assay type: functional
[4] = target: T2, ATP-dependent translocase ABCB1 (Homo sapiens, UniProt P08183); assay: P-gp JC-1 efflux blockade concentration-response – Jurkat-DNR cells, flow cytometry, set 2, dose response (AID 504569); assay type: functional; conditions: read-out: EC50_MICROM_;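 further: potency of pump inhibitors that raise cellular JC-1 green fluorescence up to the nicardipine level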
T2 sequence (P08183 whole entry): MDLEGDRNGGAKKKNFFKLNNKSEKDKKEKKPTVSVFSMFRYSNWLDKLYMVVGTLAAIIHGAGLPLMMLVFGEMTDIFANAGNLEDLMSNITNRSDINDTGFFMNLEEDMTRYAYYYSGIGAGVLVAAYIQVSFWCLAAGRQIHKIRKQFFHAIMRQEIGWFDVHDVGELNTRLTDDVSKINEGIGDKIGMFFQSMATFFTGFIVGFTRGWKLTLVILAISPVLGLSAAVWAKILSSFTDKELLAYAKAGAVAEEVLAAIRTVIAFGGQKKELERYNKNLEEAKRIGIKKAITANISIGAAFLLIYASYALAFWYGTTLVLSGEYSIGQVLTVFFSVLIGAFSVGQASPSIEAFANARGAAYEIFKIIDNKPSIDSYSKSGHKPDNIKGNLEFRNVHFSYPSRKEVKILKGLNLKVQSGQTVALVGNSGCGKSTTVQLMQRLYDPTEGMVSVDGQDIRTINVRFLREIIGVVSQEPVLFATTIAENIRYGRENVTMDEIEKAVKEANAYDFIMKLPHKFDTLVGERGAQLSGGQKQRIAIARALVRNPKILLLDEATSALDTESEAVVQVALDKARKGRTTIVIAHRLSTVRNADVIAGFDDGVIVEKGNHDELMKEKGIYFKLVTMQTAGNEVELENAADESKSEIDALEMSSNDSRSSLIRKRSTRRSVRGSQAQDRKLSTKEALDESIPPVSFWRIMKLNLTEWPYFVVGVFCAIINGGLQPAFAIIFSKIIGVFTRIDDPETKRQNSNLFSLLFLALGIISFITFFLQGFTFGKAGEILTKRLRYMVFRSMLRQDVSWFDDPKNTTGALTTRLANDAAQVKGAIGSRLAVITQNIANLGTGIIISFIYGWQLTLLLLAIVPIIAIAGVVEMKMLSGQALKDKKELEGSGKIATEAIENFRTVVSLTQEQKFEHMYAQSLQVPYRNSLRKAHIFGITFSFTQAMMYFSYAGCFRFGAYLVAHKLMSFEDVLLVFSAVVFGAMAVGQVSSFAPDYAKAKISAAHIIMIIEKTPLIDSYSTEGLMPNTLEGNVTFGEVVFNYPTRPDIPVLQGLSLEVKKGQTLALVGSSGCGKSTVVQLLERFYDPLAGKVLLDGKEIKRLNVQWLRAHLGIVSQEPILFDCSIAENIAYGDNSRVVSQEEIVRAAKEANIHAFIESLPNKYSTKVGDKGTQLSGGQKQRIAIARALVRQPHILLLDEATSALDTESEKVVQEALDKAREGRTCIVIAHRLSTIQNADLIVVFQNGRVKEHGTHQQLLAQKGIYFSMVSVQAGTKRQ

[5] = target: T2, ATP-dependent translocase ABCB1; assay: inhibition of BCRP-mediated JC-1 efflux – Ig-MXP3 cells, flow cytometry, set 2, dose response (AID 504566); assay type: functional; conditions: read-out: EC50_MICROM_;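 further: flow cytometry median green fluorescence of retained JC-1 dye; potency of efflux pump inhibition measured as rising substrate retention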
Fatty acid synthase [6] = target: T3, Fatty acid synthase (Homo sapiens, UniProt P49327); assay: inhibition of human FAS-TE enzyme activity – biochemical, kinetic fluorescence intensity, dose response (AID 624326); assay type: functional;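 further: rate of fluorescence rise from hydrolysis of a fluorogenic O-methyl fluorescein ester substrate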
T3 sequence (P49327 whole entry, the tested form may be a part): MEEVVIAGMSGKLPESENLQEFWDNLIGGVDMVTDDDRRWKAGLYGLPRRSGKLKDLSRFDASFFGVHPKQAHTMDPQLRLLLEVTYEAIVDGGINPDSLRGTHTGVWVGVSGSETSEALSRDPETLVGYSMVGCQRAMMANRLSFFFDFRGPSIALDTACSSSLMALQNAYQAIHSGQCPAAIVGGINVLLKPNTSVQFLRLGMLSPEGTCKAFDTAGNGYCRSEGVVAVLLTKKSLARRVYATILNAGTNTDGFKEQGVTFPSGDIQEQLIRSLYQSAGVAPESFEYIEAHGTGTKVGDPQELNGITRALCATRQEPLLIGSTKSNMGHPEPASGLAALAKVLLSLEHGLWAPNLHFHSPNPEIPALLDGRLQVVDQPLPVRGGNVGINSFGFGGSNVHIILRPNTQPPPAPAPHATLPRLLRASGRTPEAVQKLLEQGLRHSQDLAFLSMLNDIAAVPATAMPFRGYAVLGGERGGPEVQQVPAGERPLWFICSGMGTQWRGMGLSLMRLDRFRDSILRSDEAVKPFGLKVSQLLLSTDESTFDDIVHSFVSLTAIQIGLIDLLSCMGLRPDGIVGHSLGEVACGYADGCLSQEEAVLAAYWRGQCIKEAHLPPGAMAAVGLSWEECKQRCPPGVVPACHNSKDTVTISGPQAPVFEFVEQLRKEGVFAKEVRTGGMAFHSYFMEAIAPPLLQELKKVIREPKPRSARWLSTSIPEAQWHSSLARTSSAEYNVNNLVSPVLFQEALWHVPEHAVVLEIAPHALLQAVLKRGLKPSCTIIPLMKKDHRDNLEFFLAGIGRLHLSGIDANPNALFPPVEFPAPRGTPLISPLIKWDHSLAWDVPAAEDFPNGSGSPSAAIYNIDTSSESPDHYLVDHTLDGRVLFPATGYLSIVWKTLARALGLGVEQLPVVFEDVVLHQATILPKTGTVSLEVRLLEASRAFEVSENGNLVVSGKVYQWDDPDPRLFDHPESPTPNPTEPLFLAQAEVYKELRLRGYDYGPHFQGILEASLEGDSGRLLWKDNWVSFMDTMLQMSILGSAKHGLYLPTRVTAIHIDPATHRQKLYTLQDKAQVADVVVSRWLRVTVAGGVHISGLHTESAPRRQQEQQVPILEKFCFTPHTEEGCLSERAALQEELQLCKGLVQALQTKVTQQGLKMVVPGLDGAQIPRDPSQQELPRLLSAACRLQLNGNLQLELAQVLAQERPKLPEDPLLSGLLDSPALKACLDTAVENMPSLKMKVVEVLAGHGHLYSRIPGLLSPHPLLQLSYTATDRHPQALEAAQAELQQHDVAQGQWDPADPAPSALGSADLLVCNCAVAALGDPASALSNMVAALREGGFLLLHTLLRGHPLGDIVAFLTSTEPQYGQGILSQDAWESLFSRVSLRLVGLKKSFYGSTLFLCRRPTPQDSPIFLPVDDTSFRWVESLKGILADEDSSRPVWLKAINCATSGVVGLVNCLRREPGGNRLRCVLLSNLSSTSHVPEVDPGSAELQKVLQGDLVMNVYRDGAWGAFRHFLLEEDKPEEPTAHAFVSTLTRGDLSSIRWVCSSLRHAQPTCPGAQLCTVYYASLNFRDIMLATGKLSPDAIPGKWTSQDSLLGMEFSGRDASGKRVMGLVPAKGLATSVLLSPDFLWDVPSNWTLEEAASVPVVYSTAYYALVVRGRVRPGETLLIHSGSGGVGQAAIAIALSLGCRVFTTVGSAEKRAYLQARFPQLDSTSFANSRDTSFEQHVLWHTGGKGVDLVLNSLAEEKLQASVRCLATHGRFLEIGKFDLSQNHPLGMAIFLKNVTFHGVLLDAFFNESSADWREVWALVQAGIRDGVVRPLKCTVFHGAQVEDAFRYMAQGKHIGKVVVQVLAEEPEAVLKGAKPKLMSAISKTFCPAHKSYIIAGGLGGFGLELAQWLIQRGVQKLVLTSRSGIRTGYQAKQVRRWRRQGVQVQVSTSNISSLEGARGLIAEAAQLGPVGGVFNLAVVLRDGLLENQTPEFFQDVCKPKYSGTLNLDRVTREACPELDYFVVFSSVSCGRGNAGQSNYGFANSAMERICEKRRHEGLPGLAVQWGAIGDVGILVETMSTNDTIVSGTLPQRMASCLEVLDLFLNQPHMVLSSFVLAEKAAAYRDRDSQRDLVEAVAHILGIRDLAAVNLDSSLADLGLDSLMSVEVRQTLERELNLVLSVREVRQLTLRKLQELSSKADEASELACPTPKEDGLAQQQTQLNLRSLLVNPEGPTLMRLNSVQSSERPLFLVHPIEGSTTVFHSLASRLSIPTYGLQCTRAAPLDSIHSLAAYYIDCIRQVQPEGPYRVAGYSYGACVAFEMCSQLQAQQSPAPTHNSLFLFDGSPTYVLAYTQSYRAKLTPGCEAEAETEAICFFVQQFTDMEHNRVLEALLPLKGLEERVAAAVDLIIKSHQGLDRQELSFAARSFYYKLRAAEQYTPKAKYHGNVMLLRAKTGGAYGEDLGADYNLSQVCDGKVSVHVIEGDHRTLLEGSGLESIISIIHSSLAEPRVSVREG

[7] = Fluorescence-based cell-based high throughput dose response assay for inhibitors of the interaction of nucleotide-binding oligomerization domain containing 2 (NOD2) and the receptor-interacting serine-threonine kinase 2 (RIPK2).; assay type: functional; conditions: Homo sapiens
[8] = target: Photoreceptor-specific nuclear receptor (Homo sapiens, UniProt Q9Y5X4); assay type: functional, cell-based;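 further: CHO-S cells with Gal4-NCOR and VP16-NR2E3 two-hybrid luciferase reporter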
Fatty acid synthase [9] = target: T3, Fatty acid synthase; assay: inhibition of human FAS-TE enzyme activity – biochemical, endpoint fluorescence intensity, uHTS hits, dose response (AID 624327); assay type: functional;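 further: fluorescence from hydrolysis of an O-methyl fluorescein acyl ester substrate by the enzyme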
Beta Lactamase = Beta Lactamase (Pseudomonas aeruginosa, UniProt Q932Y6); assay: BLA reporter interference, concentration series – BLA reporter cells, FRET fluorescence, artefact control for NOD2-RIPK2 interaction inhibitor project, dose response (AID 651552); assay type: functional, cell-based
[10] = target: Bifunctional protein GlmU (Mycobacterium tuberculosis, UniProt P9WMN3); assay: Inhibitors of Mycobacterial Glucosamine-1-phosphate acetyl transferase (GlmU). Secondary screen.; design: species or system Mycobacterium tuberculosis H37Rv
[11] = target: T4, Tyrosine-protein phosphatase non-receptor type 22 (Homo sapiens, UniProt Q9Y2R2); assay: lymphoid phosphatase LYP inhibitors – biochemical, selectivity assay for STEP inhibitor project, dose response (AID 624241); assay type: functional
T4 sequence (Q9Y2R2 whole entry): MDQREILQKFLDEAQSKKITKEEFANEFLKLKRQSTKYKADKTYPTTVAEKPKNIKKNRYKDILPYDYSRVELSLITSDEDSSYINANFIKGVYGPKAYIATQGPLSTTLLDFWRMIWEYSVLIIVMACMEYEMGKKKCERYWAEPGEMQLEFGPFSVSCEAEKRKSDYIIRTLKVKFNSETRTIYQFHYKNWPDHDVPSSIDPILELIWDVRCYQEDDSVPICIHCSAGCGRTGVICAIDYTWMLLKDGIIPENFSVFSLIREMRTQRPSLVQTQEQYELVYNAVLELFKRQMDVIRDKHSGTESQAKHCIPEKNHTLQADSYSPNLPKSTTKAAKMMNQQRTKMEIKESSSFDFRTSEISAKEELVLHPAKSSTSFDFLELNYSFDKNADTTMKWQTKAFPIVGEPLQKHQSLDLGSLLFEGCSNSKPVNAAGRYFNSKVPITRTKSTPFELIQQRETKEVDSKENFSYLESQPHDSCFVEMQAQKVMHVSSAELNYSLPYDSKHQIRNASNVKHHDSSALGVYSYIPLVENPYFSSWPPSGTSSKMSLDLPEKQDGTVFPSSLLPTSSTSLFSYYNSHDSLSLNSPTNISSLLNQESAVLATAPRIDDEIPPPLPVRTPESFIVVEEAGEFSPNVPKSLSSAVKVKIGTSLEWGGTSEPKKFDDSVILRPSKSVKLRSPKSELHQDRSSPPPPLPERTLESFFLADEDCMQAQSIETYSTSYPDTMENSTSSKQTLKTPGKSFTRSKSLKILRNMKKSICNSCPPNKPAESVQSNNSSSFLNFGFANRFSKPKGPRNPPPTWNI

Large T antigen = Large T antigen (Simian virus 40, UniProt P03070); assay type: functional, Betapolyomavirus macacae;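 further: Confirmatory-stage PubChem screen for compounds that inhibit SV40 T antigen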
[12] = target: Dual specificity protein phosphatase 3 (Homo sapiens, UniProt P51452); assay: VHR phosphatase inhibition, dose response, selectivity assay for STEP inhibitor project, biochemical (AID 602374); assay type: functional; conditions: read-out: IC50_Mean
[13] = target: Tyrosine-protein phosphatase non-receptor type 11 (Homo sapiens, UniProt Q06124); assay: PTPN11 enzyme inhibitors – biochemical, selectivity assay for STEP inhibitor project, dose response (AID 602367); assay type: functional; conditions: read-out: IC50_Mean

T1 sequence (Q9P0U3 whole entry, the tested form may be a part): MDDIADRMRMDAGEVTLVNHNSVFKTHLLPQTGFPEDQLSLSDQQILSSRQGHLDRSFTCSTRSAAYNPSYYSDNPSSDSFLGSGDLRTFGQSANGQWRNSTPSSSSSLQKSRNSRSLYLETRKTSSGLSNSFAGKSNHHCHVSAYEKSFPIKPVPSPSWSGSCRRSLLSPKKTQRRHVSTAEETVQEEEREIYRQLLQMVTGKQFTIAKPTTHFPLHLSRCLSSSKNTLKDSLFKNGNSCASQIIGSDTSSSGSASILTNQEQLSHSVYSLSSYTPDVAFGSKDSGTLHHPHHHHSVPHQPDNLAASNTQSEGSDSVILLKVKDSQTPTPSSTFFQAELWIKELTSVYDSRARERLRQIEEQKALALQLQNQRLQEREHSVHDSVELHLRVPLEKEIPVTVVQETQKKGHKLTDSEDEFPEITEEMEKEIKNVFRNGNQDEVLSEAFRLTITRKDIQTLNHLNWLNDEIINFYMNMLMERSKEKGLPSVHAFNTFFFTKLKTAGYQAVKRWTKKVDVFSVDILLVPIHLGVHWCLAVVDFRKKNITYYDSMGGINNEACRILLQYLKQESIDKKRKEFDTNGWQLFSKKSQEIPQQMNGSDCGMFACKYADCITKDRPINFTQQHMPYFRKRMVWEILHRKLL

## COc1ccc2c(c1)c1nc3ccccc3nc1n2Cc1ccc(OC(C)C)c(OC)c1
[1]
  IC50: 34.7 µM (inactive)
[2]
  IC50: 24.4 µM (inactive)

## CC(C)(C)[C@H]1COC(=O)[C@H](NC(=O)OCC2c3ccccc3-c3ccccc32)C/C=C\C[C@@H](CC(=O)N[C@@H](CO)Cc2ccccc2)C(=O)N1
Protein Wnt-3a
  IC50: 18.6 µM (active)

## NC(Cc1ccc(C(F)(F)F)cc1)c1csc(Nc2ccc(C(=O)NCc3ccco3)cn2)n1 (configuration not stated)
Melanocortin receptor 4
  EC50: > 9.91 µM (active)
[3]
  EC50: > 7.173 µM

## CC(=O)N1CCN(c2c(C)c(C)nc3cc(-c4cccc(F)c4)nn23)CC1
[4]
  EC50: 5.95 µM (inactive)
[5]
  EC50: 4.22 µM (active)

## CCOC(=O)[C@]12Cc3cc(C)ccc3[C@H]1N(C1CCCCC1)C(=O)c1cc(OC)ccc12
Fatty acid synthase [6]
  IC50: 6.32 µM (active)
[7]
  IC50: 1.62 µM (active)
[8]
  IC50: 4.3 µM (active)
Fatty acid synthase [9]
  IC50: 5.45 µM (active)
Beta Lactamase
  IC50: 19.3 µM (inactive)

## O=C(O)C(S)C(S)C(=O)O (configuration not stated)
[10]
  IC50: 181 µM (active)
[11]
  IC50: 4.48 µM (active)
Large T antigen
  IC50: 75.9 µM (active)
[12]
  IC50: 3.22 µM (active)
[13]
  IC50: 0.518 µM (active)
